Assay results from US3985779A, “M-phenoxyphenyl propionic acid derivatives and preparation thereof” (Eisai Co., Ltd., priority 1973, dated 1976).
“Also recorded” adds a separate entry of the source. Where two headings read alike, the source gives them in different places.

What was measured:
[1] = system: Carrageenin-induced edema; assay: Inhibitory activity on Carrageenin-induced Edema in rats (Experiment A); format: in vivo, rats (male Wistar); conditions: 3 hours after Carrageenin
Procedure: Inhibitory activity on Carrageenin-induced Edema in rats
Carrageenin was used as the agent for inducing edema and 5 male rats of Wistar strain having body weight of about 150 grs. after fasting for 16-17 hours were used as test animals. The inhibitory activity of the test compounds were determined with the paw edema method in accordance with Winter C. A. et al; Proc. Soc. Exp. Biol. Med. 111, 544 (1962).
The compounds were suspended in an aqueous solution of gum arabic and the same were orally administered to the rats at 1 hour before the injection of Carrageenin.
The observation was effected by measuring, after 3 hours the administration of the Carrageenin, the enlarged volumes of hind paw of the rats.

[2] = system: Kaolin-induced edema; assay: Inhibitory activity on Kaolin-induced Edema in Rats (Experiment B); format: in vivo
[3] = system: Dextran-induced edema; assay: Inhibitory activity on dextran-induced edema in rats (Experiment C); format: in vivo
Procedure: Inhibitory activity on dextran-induced edema in rats Experiment was carried out in the manner same as those of the preceding Experiments in which dextran was employed as irritant substance.

[4] = system: ARRS-induced edema; assay: Inhibitory activity on anti-rat-rabbit serum (ARRS)-induced edema in rats (Experiment D); format: in vivo
Procedure: Inhibitory activity on anti-rat-rabbit serum (ARRS)-induced edema in rats Similar Experiments was carried out by using ARRS as irritant substance.

[5] = system: Adjuvant-induced arthritis; assay: Inhibitory activity on Adjuvant arthritis in rats (Experiment E); format: in vivo
Description: The inflammatory score and the volumes of the right and left paws of the rats were observed.

[6] = system: stomachs of the rats; format: in vivo; conditions: 50 mg/kg oral; score 0 (nothing unusual) to 10 (considerable irritability with bleeding)
Description: Observation of gastric irritability
Gastric irritability due to oral administration of the compounds as edema inhibitory agent was studied by macroscopical observation of the dissected stomachs of the rats which had been employed for determination of the edema inhibitions mentioned in the preceding paragraphs. The degrees of the irritability observed were scored in the 0 to 10 ratings depending upon the extent of errosions and bleedings of the stomachs, wherein the rating of 0(zero) means "nothing unusual", the rating of 10 means a state of considerable gastric irritability with bleeding and the remainders mean the intermediate degree of gastric irritability.

[7] = in vivo; conditions: mouse, po
Procedure: Comparison of toxicity of the phenyl propionic acid derivatives of the present invention and that of the other known anti-inflammatory agents was carried out in mice.

[8] = system: yeast-induced pyrexia; assay: Antipyretic activity to the yeast-treated rats (Experiment I); format: in vivo, rats (Wistar strain male); conditions: for minimal effective dose: Rattus norvegicus, po
Procedure: To Wistar strain male rats having about 300 - 350 grs. body weight, an aqueous suspension of yeast was subcutaneously injected to induce pyrexia.
At the lapse of 4 hours since the dose of the yeast suspension, the compounds under test given in hereinaftermentioned Table 10 in a form of suspension in a 5% gum arabic aqueous solution are orally administered. The rectal temperatures of the rats were measured periodically by means of a thermister-type thermometer sold by Japan Koden K.K. As control, said 5% gum arabic aqueous solution alone was administered.

[9] = system: writhing syndrome; assay: Analgesic activity: antagonism to acetic acid writhing syndrome in mice (Experiment J); format: in vivo, mice (dd strain male)
Procedure: Analgesic activity of the compound of the present invention in comparison with the known compounds.
Analgesic activity of the compound was tested as the measure of antagonism to writhing syndrome appeared when 0.1 ml/10g of 0.7% acetic acid was intraperitoneally injected to the dd strain male mice having 17 - 20 grs. body weight which had been abstinence from food for 18 hours.
The compounds under test were orally administered in a form of suspension in a 5% aqueous solution of gum arabic. After one hour from the administration, the onset times required for the writhing syndrome were scored.
In another Experiment in the combined use of the compounds under test and Codeine phosphate, 10 - 20 mg/kg of Codeine phosphate were orally administered immediatly after the oral administration of the compounds under test.

[10] = system: granuloma induced by Formalin Filter paper Pellet; conditions: for Adrenal / Granuloma-Wet-Weight ± S.E. / Thymus: 6 days
[11] = daily oral 40 mg/kg for 9 days, final

Compound: CC(C(=O)O)c1cccc(Oc2ccccc2Cl)c1 (stereo not drawn) [Compound (5), 2-[m-(o-chlorophenoxy)phenyl]propionic acid]
- % of Inhibition ([1]; oral 8.0 mg/kg): 43%
- Edema density ± S.E. ([1]; oral 8.0 mg/kg): .305 ± .044
- % of Inhibition ([1]; oral 40.0 mg/kg): 53%
- Edema density ± S.E. ([1]; oral 40.0 mg/kg): .250 ± .049
- % of Inhibition ([2]; after 3 hrs, oral 8 mg/kg): 20%
- Edema D. ± S.E. ([2]; after 3 hrs, oral 8 mg/kg): .334 ± .069
- % of Inhibition ([2]; after 3 hrs, oral 40 mg/kg): 52%
- Edema D. ± S.E. ([2]; after 3 hrs, oral 40 mg/kg): .201 ± .021
- % of Inhibition ([2]; after 5 hrs, oral 8 mg/kg): 21%
- Edema D. ± S.E. ([2]; after 5 hrs, oral 8 mg/kg): .442 ± .045
- % of Inhibition ([2]; after 5 hrs, oral 40 mg/kg): 57%
- Edema D. ± S.E. ([2]; after 5 hrs, oral 40 mg/kg): .245 ± .017
- % of Inhibition ([2]; after 7 hrs, oral 8 mg/kg): 7%
- Edema D. ± S.E. ([2]; after 7 hrs, oral 8 mg/kg): .563 ± .060
- % of Inhibition ([2]; after 7 hrs, oral 40 mg/kg): 51%
- Edema D. ± S.E. ([2]; after 7 hrs, oral 40 mg/kg): .294 ± .035
- % of Inhibition ([3]; after 2 hrs, oral 8 mg/kg): 1%
- Edema D. ± S.E. ([3]; after 2 hrs, oral 8 mg/kg): .830 ± .052
- % of Inhibition ([3]; after 2 hrs, oral 40 mg/kg): 11%
- Edema D. ± S.E. ([3]; after 2 hrs, oral 40 mg/kg): .742 ± .037
- % of Inhibition ([3]; after 3 hrs, oral 8 mg/kg): 1%
- Edema D. ± S.E. ([3]; after 3 hrs, oral 8 mg/kg): .746 ± .026
- % of Inhibition ([3]; after 3 hrs, oral 40 mg/kg): 8%
- Edema D. ± S.E. ([3]; after 3 hrs, oral 40 mg/kg): .689 ± .035
- Edema D. ± S.E. ([4]; after 2 hrs, oral 8 mg/kg): .631 ± 7040
- % of Inhibition ([4]; after 2 hrs, oral 40 mg/kg): 10%
- Edema D. ± S.E. ([4]; after 2 hrs, oral 40 mg/kg): .610 ± .067
- % of Inhibition ([4]; after 3 hrs, oral 8 mg/kg): 11%
- Edema D. ± S.E. ([4]; after 3 hrs, oral 8 mg/kg): .637 ± .074
- % of Inhibition ([4]; after 3 hrs, oral 40 mg/kg): 19%
- Edema D. ± S.E. ([4]; after 3 hrs, oral 40 mg/kg): .575 ± .074
- Final Paw Volume, left paw [5, 11]: 45
- Final Paw Volume, right paw [5, 11]: 66
- Final Score, Mean, left paw [5, 11]: 1.8
- Final Score, Mean, right paw [5, 11]: 3.2
- Final Score, Total, left paw [5, 11]: 9
- Final Score, Total, right paw [5, 11]: 16
- Initial Paw Volume, left paw ([5]; daily oral 40 mg/kg, initial): 39
- Initial Paw Volume, right paw ([5]; daily oral 40 mg/kg, initial): 73
- Initial Score, Mean, left paw ([5]; daily oral 40 mg/kg, initial): 1.8
- Initial Score, Mean, right paw ([5]; daily oral 40 mg/kg, initial): 3.6
- Initial Score, Total, left paw ([5]; daily oral 40 mg/kg, initial): 9
- Initial Score, Total, right paw ([5]; daily oral 40 mg/kg, initial): 18
- inhibitory activity on Adjuvant arthritis (in words) ([5]; score and paw volume, 40 mg/kg daily for 9 days): significant inhibitory activity in score and paw volume
- Degree of gastric irritability [6]: 2
- LD50 [7]: 1120 mg/kg
- body temperature relative to normal (in words) ([8]; 80 and 160 mg/kg p.o.): no body temperatures lower than the normal body temperatures
- Change in rectal temperature, mean ± S.E. ([8]; 1 hr, 1.25 mg/kg p.o.): +0.25 ± 0.09
- Change in rectal temperature, mean ± S.E. ([8]; 1 hr, 5 mg/kg p.o.): -0.15 ± 0.13
- Change in rectal temperature, mean ± S.E. ([8]; 1 hr, 20 mg/kg p.o.): -0.53 ± 0.10
- Change in rectal temperature, mean ± S.E. ([8]; 1 hr, 80 mg/kg p.o.): -0.55 ± 0.13
- Change in rectal temperature, mean ± S.E. ([8]; 1 hr, 160 mg/kg p.o.): -0.48 ± 0.14
- Change in rectal temperature, mean ± S.E. ([8]; 3 hrs, 1.25 mg/kg p.o.): +0.03 ± 0.21
- Change in rectal temperature, mean ± S.E. ([8]; 3 hrs, 5 mg/kg p.o.): -0.30 ± 0.17
- Change in rectal temperature, mean ± S.E. ([8]; 3 hrs, 20 mg/kg p.o.): -0.90 ± 0.10
- Change in rectal temperature, mean ± S.E. ([8]; 3 hrs, 80 mg/kg p.o.): -0.83 ± 0.09
- Change in rectal temperature, mean ± S.E. ([8]; 3 hrs, 160 mg/kg p.o.): -0.90 ± 0.17
- Change in rectal temperature, mean ± S.E. ([8]; 5 hrs, 1.25 mg/kg p.o.): +0.13 ± 0.15
- Change in rectal temperature, mean ± S.E. ([8]; 5 hrs, 5 mg/kg p.o.): -0.25 ± 0.16
- Change in rectal temperature, mean ± S.E. ([8]; 5 hrs, 20 mg/kg p.o.): -0.70 ± 0.27
- Change in rectal temperature, mean ± S.E. ([8]; 5 hrs, 80 mg/kg p.o.): -0.65 ± 0.16
- Change in rectal temperature, mean ± S.E. ([8]; 5 hrs, 160 mg/kg p.o.): -1.03 ± 0.19
- minimal effective dose ([8]; 1 h, p.o., compound (5): at one hour lapse, read-out: dose with significant antipyretic activity): 5 mg/kg
- minimal effective dose ([8]; read-out: dose with tendency of an antipyretic activity): 1.25 mg/kg
- dose with maximum antipyretic activity ([8]; p.o.): 20 mg/kg
- Onset time of writhing syndrome, mean ± S.E. ([9]; 10 mg/kg p.o. combined with Codeine Phosphate 10 mg/kg): 6.7 ± 1.3 min
- Onset time of writhing syndrome, mean ± S.E. ([9]; 10 mg/kg p.o. combined with Codeine Phosphate 20 mg/kg): 6.9 ± 0.7 min
- Onset time of writhing syndrome, mean ± S.E. ([9]; 20 mg/kg p.o. combined with Codeine Phosphate 10 mg/kg): 6.9 ± 1.3 min
- Onset time of writhing syndrome, mean ± S.E. ([9]; 20 mg/kg p.o. combined with Codeine Phosphate 20 mg/kg): 8.6 ± 0.6 min
- Onset time of writhing syndrome, mean ± S.E. ([9]; 40 mg/kg p.o. combined with Codeine Phosphate 10 mg/kg): 7.1 ± 1.2 min
- Onset time of writhing syndrome, mean ± S.E. ([9]; 40 mg/kg p.o. combined with Codeine Phosphate 20 mg/kg): 13.7 ± 1.2 min
- Onset time of writhing syndrome, mean ± S.E. ([9]; 80 mg/kg p.o. combined with Codeine Phosphate 10 mg/kg): 10.5 ± 1.2 min
- Onset time of writhing syndrome, mean ± S.E. ([9]; 80 mg/kg p.o. combined with Codeine Phosphate 20 mg/kg): 14.2 ± 0.8 min
- analgesic activity in combination with Codeine (in words) ([9]; 10 - 80 mg/kg p.o. with Codeine phosphate 10 and 20 mg/kg p.o.): almost equivalent to those of Fenoprofen and Ibuprofen, and far stronger than that of Aspirin; also recorded: comparable to that of Fenoprofen and slightly stronger than that presented by Ibuprofen
- minimal effective dose ([9]; Mus musculus, 1 h, single oral administration, read-out: dose with significant antagonism / retardation of writhing syndrome): > 20 mg/kg
- analgesic activity (in words) ([9]; mouse, in vivo): high analgesic activity
- Onset time of writhing syndrome, mean ± S.E. ([9]; test compound alone, 10 mg/kg p.o.): 5.2 ± 1.2 min
- Onset time of writhing syndrome, mean ± S.E. ([9]; test compound alone, 20 mg/kg p.o.): 6.6 ± 1.6 min
- Onset time of writhing syndrome, mean ± S.E. ([9]; test compound alone, 40 mg/kg p.o.): 5.8 ± 0.4 min
- Onset time of writhing syndrome, mean ± S.E. ([9]; test compound alone, 80 mg/kg p.o.): 7.8 ± 1.7 min
- Adrenal ([10]; daily oral 8 mg/kg): 44.6 mg
- Granuloma-Wet-Weight ± S.E. ([10]; daily oral 8 mg/kg): 68 ± 4
- Thymus ([10]; daily oral 8 mg/kg): 545 mg
- Adrenal ([10]; daily oral 40 mg/kg): 43.8 mg
- Granuloma-Wet-Weight ± S.E. ([10]; daily oral 40 mg/kg): 89 ± 4
- Thymus ([10]; daily oral 40 mg/kg): 522 mg
- inhibitory activity on granuloma (in words) ([10]; oral 8 and 40 mg/kg/day for successive 6 days): significant effect as compared with the control
